Data taken from paper PMC6036970, “Natural and redesigned wasp venom peptides with selective antitumoral activity” (Beilstein Journal of Organic Chemistry, 2018).
Where no end group is shown, it is not given here.

Key:
[1] = system: MCF-7 breast cancer cells; experiment: MTT cytotoxicity assay on MCF-7 cancer cells; format: cell-based; settings: for IC50 against MCF-7 / IC50: MCF-7, 24 h, read at 570 nm; for IC50 against MCF-7 / IC50 / LD50 / concentration achieving >50% of cancer cell lysis: MTT, triplicate; for effect on cell viability 2 h post-exposure: after 2 h; for inhibition of cancer cell growth: dose of ≈50 μmol L^−1; for inhibition of cell viability: 50 μmol L^−1 after 2 h; for IC50: read-out: IC50 against MCF-7; for LD50 / concentration achieving >50% of cancer cell lysis: MCF-7, after 24 h
Procedure: (§1) MCF-7 cells (ATCC) were maintained in RPMI 1640 medium supplemented with 10% heat inactivated FBS and 100 μg mL^−1 penicillin/10 μg mL^−1 streptomycin. One day before the assays, the cells were plated in 96-well microtiter plates with a density of 2.0 × 10^4 cells/well at 37 °C and 5% CO2. On the next day, cells were treated with peptides serial dilutions (0.09–50 μmol L^–1), incubated in individual microtiter plates for 2 and 24 h and MTT assays were performed after treatment. Human breast epithelial cells MCF-10A (ATCC) were maintained in a mixture of Dulbecco’s Modified Eagle’s Medium and Ham’s F12 nutrient mixture supplemented with 5% inactivated horse serum, 10 μg mL^−1 insulin, 0.02 μg mL^−1 human epidermal growth factor, 0.5 μg mL^−1 hydrocortisone, 0.10 μg mL^−1 choleric toxin, 100 U mL^−1 penicillin, and 100 μg mL^−1 streptomycin. The cells were preincubated for 24 h, plated in 96-well microtiter plates with a density of 2.0 × 10^4 cells/well at 37 °C and 5% CO2. On the next day, cells were treated with peptides serial dilutions (25 to 100 μmol L^−1), incubated in individual microtiter plates for 4 and 24 h and MTT assay was performed after treatment. Experiments were performed in triplicate.
(§2) Briefly, MTT (Sigma-Aldrich) was dissolved in water and filtered to make up a […] solution. 30 μL of this solution were added to all the wells which already contained peptide-treated cells and kept at 37 °C for 45 minutes. Subsequently, the solution was discarded and replaced with 150 μL/well of DMSO and followed by gentle shaking for 15 minutes. Finally, the microplates were read on an ELISA reader at 570 nm. Experiments were performed in triplicate.

[2] = system: human red blood cells; settings: ref Torres et al. [9]–[10]; cited from earlier work
Source text: Table 1 Theoretical physicochemical properties and hemolytic activity of decoralin and its synthetic analogs.^a

[3] = system: MCF-10A normal cells; experiment: MTT cytotoxicity assay on MCF-10A normal cells; format: cell-based, human; settings: for cytotoxicity against MCF-10A normal cells: up to higher concentrations (≈100 μmol L^−1)
Procedure: as §1, §2

[4] = system: MCF-7 cells; experiment: AFM measurement of cell membrane roughness; format: cell-based; settings: MCF-7, 50 μmol L^−1, 24 h, AFM contact mode, Ra and Rq
Procedure: The AFM imaging of MCF-7 cells untreated (control) and treated with peptide (50 μmol L^−1 solutions of Dec-NH2 and [Leu]^8-Dec-NH2, which presented low activity when compared to other analogs and was used here as a treated control) was performed using an Agilent Technologies 5500 AFM/SPM microscope that was in contact mode and a Nanosensors™ PPP-CONT probe (NanoSensors; PPP-Cont-20, PointProbe-Plus Silicon-SPM-Sensor). The material properties and dimensions of the AFM tips used in this experiment were as follows: resonance frequency of 6–21 kHz, force constant of 0.02–0.77 N m^−1, cantilever length of 450 ± 10 μm, cantilever width of 50 ± 7.5 μm, cantilever thickness of 2 ± 1 μm, tip height of 10–15 μm and resistivity of 0.01–0.02 Ω cm. The assays were performed in triplicate; image processing and roughness determinations were performed with the aid of the Gwyddion software (http://gwyddion.net/download.php). In order to compare the cell surface, we used two roughness parameters, the mean roughness (Ra) and the mean square of Z data (Rq), where N is the difference between the highest and the lowest points in the analyzed area. […]
The root mean square of the Z values Rq is the standard deviation of the N values in the area analyzed and is given by Equation 2: […]

[5] = system: Gram-positive bacteria, Gram-negative bacteria, and fungi; settings: ref Torres et al. [9]; cited from earlier work

Substance | IC50 against MCF-7 [1] [µM] | inhibition of cancer cell growth ([1]; MCF-7, MTT) | MHC (maximal non-hemolytic concentration) [2] [µmol/L] | IC50 [1] [µM] | other results
RLLSLIRKLIT-NH2 [[Arg]^1-Dec-NH2, synthetic analog of Dec-NH2] | 50.0 | substantial inhibition | 25.00 | – | effect on cell viability 2 h post-exposure ([1]; MCF-7, MTT): significant decreased cell viability
SFLSLIRKLIT-NH2 [[Phe]^2-Dec-NH2, synthetic analog of Dec-NH2] | 50.0 | substantial inhibition | 3.12 | – | inhibition of cell viability ([1]; MCF-7, MTT): inhibited cell viability the most
SLLPLIRKLIT-NH2 [[Pro]^4-Dec-NH2] | – | – | 12.50 | 25 | –
SLLSLFRKLI-NH2 [[Phe]^6-Des[Thr]^11-Dec-NH2, synthetic analog of Dec-NH2] | 50.0 | substantial inhibition | 12.50 | – | inhibition of cell viability ([1]; MCF-7, MTT): inhibited cell viability the most
SLLSLFRKLIT-NH2 [[Phe]^6-Dec-NH2] | – | – | 3.12 | > 50 | effect on cell viability 2 h post-exposure ([1]; MCF-7, MTT): did not show significant inhibition
SLLSLIRKLIT-NH2 [Dec-NH2] | – | – | 1.56 | 12.5 | LD50 / concentration achieving >50% of cancer cell lysis [1]: 12.5 µmol/L; cytotoxicity against MCF-10A normal cells [3]: no significant cytotoxicity
SLLSLIRKLIW-NH2 [[Trp]^11-Dec-NH2] | – | – | 1.56 | 25 | –
SLLSLIRKLLT-NH2 [[Leu]^10-Dec-NH2] | – | – | 25.00 | 12.5 | LD50 / concentration achieving >50% of cancer cell lysis [1]: 12.5 µmol/L; cytotoxicity against MCF-10A normal cells [3]: no significant cytotoxicity
SLLSLIRLLIT-NH2 [[Leu]^8-Dec-NH2] | – | – | 50.00 | > 50 | activity against MCF-7 cells compared to the negative control ([1]; MCF-7, MTT): did not present significant activity; cytotoxicity towards normal MCF-10A cells ([3]; lowest concentration tested (25 μmol L^−1)): cytotoxic; change of membrane roughness [4]: did not significantly change membrane roughness; antimicrobial activity (order of magnitude) [5]: ~10^1 μmol L^−1
